From the supplement of paper PMC10307832

Legend:
Assay in all cases: relative viability (nuclei count vs DMSO), 5 days (fraction); higher = more cells survive
Carfilzomib + Alpelisib = compound: CC(C)C[C@H](NC(=O)[C@H](CCc1ccccc1)NC(=O)CN1CCOCC1)C(=O)N[C@@H](Cc1ccccc1)C(=O)N[C@@H](CC(C)C)C(=O)[C@@]1(C)CO1 [Carfilzomib] + Cc1nc(NC(=O)N2CCC[C@H]2C(N)=O)sc1-c1ccnc(C(C)(C)C(F)(F)F)c1 [Alpelisib] (partner 2 µM)
In short: (§1)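 Lung cancer cell lines were seeded in 1536-well plates and dosed by pin tool the next day, with either a single drug or a fixed anchor-drug dose combined with five library-drug doses (not always all listed) spaced in √10 steps. Five days later, one step fixed the cells and stained their nuclei (final 0.05% Triton X-100, 1% formaldehyde, 1 ug/ml Hoechst), and nuclei were counted on 4× images. Relative viability is the nuclei count in treated wells divided by the count in vehicle wells, and each value is the median of duplicate plates.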

Crizotinib + Tozasertib = compound: C[C@@H](Oc1cc(-c2cnn(C3CCNCC3)c2)cnc1N)c1c(Cl)ccc(F)c1Cl [Crizotinib] + Cc1cc(Nc2cc(N3CCN(C)CC3)nc(Sc3ccc(NC(=O)C4CC4)cc3)n2)n[nH]1 [Tozasertib] (partner 0.1 µM)
In short: as §1

Crizotinib + Olaparib = compound: C[C@@H](Oc1cc(-c2cnn(C3CCNCC3)c2)cnc1N)c1c(Cl)ccc(F)c1Cl [Crizotinib] + O=C(c1cc(Cc2n[nH]c(=O)c3ccccc23)ccc1F)N1CCN(C(=O)C2CC2)CC1 [Olaparib] (partner 8 µM)
In short: as §1

Olaparib + Crizotinib = compound: O=C(c1cc(Cc2n[nH]c(=O)c3ccccc23)ccc1F)N1CCN(C(=O)C2CC2)CC1 [Olaparib] + C[C@@H](Oc1cc(-c2cnn(C3CCNCC3)c2)cnc1N)c1c(Cl)ccc(F)c1Cl [Crizotinib] (partner 1 µM)
In short: as §1

Cell Line	relative viability (Carfilzomib + Alpelisib; first compound 0.001 µM)	relative viability (Carfilzomib + Alpelisib; first compound 0.003162 µM)	relative viability (Carfilzomib + Alpelisib; first compound 0.01 µM)	relative viability (Carfilzomib + Alpelisib; first compound 0.03162 µM)	relative viability (Carfilzomib + Alpelisib; first compound 0.1 µM)	relative viability (Crizotinib + Tozasertib; first compound 0.01 µM)	relative viability (Crizotinib + Tozasertib; first compound 0.03162 µM)	relative viability (Crizotinib + Tozasertib; first compound 0.1 µM)	relative viability (Crizotinib + Tozasertib; first compound 1 µM)	relative viability (Crizotinib + Olaparib; first compound 0.01 µM)	relative viability (Crizotinib + Olaparib; first compound 0.03162 µM)	relative viability (Crizotinib + Olaparib; first compound 0.1 µM)	relative viability (Crizotinib + Olaparib; first compound 0.3162 µM)	relative viability (Crizotinib + Olaparib; first compound 1 µM)	relative viability (Olaparib + Crizotinib; first compound 0.08 µM)	relative viability (Olaparib + Crizotinib; first compound 0.253 µM)	relative viability (Olaparib + Crizotinib; first compound 2.53 µM)	relative viability (Olaparib + Crizotinib; first compound 8 µM)	relative viability (Crizotinib + Tozasertib; first compound 0.3162 µM)
UMC-11	1.01	0.976	0.947	1.03	0.152	0.185	0.184	0.192	0.208	0.35	0.306	0.375	0.494	0.317	0.757	0.502	0.492	0.265	–
EMC-BAC-2	0.699	0.733	0.757	0.758	0.326	0.326	0.281	0.304	0.275	0.501	0.489	0.499	–	0.474	0.767	0.727	0.638	0.603	0.285
HCC-44	0.786	0.785	0.861	0.705	0.134	0.936	–	0.992	1.01	0.923	1.04	1.05	0.955	1	0.914	0.729	0.841	0.825	0.836
PC-3 [JPC-3]	1.07	1.08	1.02	0.824	0.257	0.834	0.878	0.934	0.855	1.09	1.22	1.13	–	1.12	1	0.902	1.01	0.928	0.836
NCI-H1734	0.695	0.832	0.69	0.367	0.165	0.247	0.27	0.253	0.257	0.63	0.574	0.624	–	0.608	0.691	0.681	0.647	0.553	–
HOP-62	0.935	1.12	0.986	0.118	0.0839	0.396	0.33	0.354	0.383	0.38	0.415	0.479	0.316	0.504	1.07	0.902	0.792	0.631	0.322
HARA	0.79	0.857	1.07	0.0576	0.0587	0.106	0.079	0.1	0.116	0.876	0.929	0.957	0.793	0.635	1.04	0.93	1.08	0.803	–
NCI-H2023	0.605	0.539	0.732	0.488	0.0793	0.356	0.284	0.293	0.271	0.449	0.498	0.521	0.408	0.451	0.789	0.661	0.658	0.574	0.241
NCI-H1993	0.717	0.654	0.765	0.521	0.483	0.558	0.538	0.552	0.588	0.919	0.948	–	0.924	0.9	0.967	0.954	0.987	1.07	0.588
NCI-H460	0.556	0.462	0.538	0.101	0.0126	0.368	0.441	0.474	0.455	0.463	0.457	0.455	–	0.423	0.875	0.744	0.502	0.17	0.248
NCI-H596	0.467	0.566	0.464	0.276	0.194	0.887	0.804	0.924	–	0.698	0.675	0.695	0.642	0.671	0.736	0.866	1.02	0.833	0.861
NCI-H441	0.946	0.842	0.2	0.102	0.15	0.527	0.609	0.536	0.837	0.595	0.444	0.583	0.517	0.587	0.677	0.634	0.733	0.719	–
COR-L 105	1.04	1.16	0.85	0.566	0.246	0.331	0.361	0.367	0.344	0.661	0.689	0.757	0.584	0.7	0.866	0.668	0.621	0.522	0.326
NCI-H322M	0.796	0.757	0.365	0.748	0.509	0.482	0.515	0.48	0.459	–	0.839	0.746	0.658	0.777	1.03	0.803	0.994	0.902	0.49
HCC-827	0.943	0.948	0.945	0.934	0.357	0.427	0.438	0.414	0.415	0.618	0.58	0.637	0.517	0.655	0.941	0.908	0.949	0.814	0.413
NCI-H1651	0.927	0.881	0.725	0.0951	0.0668	0.697	0.7	0.701	0.621	0.183	0.2	0.185	0.173	0.194	0.882	0.782	0.669	0.439	0.723
EKVX	0.845	1.06	0.953	0.837	0.363	0.392	0.398	0.426	0.405	0.754	0.922	0.866	0.777	0.793	1.13	0.831	1.08	0.98	0.349
